Columns and labels:
Format in all cases: cell-based
NaV1.8 = NaV1.8 (Homo sapiens, UniProt Q9Y5Y9); assay: VIPR optical membrane potential assay, NaV1.8 (other subtypes in an analogous mode); conditions: Table 9, NaV 1.8 receptors
Summary of the method: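 Cells expressing the NaV subtype stained with coumarin and DiSBAC2(3) membrane-potential dyes, then incubated with test compound for 20-30 minutes. Depolarization evoked by sodium addback and read optically on VIPR; block measured as reduced membrane-potential response, with tetracaine as positive control.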

CaV2.2 = target: T1, CaV2.2 (Homo sapiens, UniProt Q00975); assay: VIPR optical membrane potential assay with electrical stimulation, CaV2.2; conditions: Table 9, CaV 2.2 receptors
T1 construct: expressed in transfected cells; host or cells: HEK293
Summary of the method: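 HEK293 cells stably expressing CaV2.2 stained with CC2-DMPE/DiSBAC2(3) voltage-sensitive dyes (10 μM final CC2-DMPE, 30 min, RT), then compound added and cells electrically stimulated for 3-5 s. Read-out: background-subtracted 460/580 nm emission ratio; response R=Rf/Ri (post- vs pre-stimulus ratio); antagonism seen as reduced response.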

NaV1.3 = target: T2, NaV1.3 (Homo sapiens, UniProt Q9NY46); assay: VIPR optical membrane potential assay with electrical stimulation, NaV1.3; conditions: Table 9, NaV 1.3 receptors
T2 construct: expressed in transfected cells; host or cells: HEK293
Summary of the method: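 HEK293 cells stably expressing NaV1.3, stained with CC2-DMPE (10 μM final) then DiSBAC2(3) with ABSC1, 30 min each at RT; compounds added with oxonol. Electrical stimulation for 3 s; 460/580 nm background-subtracted emission ratio Rf/Ri, normalised to tetracaine (positive) and untreated (negative) controls.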

T2 sequence (Q9NY46 whole entry): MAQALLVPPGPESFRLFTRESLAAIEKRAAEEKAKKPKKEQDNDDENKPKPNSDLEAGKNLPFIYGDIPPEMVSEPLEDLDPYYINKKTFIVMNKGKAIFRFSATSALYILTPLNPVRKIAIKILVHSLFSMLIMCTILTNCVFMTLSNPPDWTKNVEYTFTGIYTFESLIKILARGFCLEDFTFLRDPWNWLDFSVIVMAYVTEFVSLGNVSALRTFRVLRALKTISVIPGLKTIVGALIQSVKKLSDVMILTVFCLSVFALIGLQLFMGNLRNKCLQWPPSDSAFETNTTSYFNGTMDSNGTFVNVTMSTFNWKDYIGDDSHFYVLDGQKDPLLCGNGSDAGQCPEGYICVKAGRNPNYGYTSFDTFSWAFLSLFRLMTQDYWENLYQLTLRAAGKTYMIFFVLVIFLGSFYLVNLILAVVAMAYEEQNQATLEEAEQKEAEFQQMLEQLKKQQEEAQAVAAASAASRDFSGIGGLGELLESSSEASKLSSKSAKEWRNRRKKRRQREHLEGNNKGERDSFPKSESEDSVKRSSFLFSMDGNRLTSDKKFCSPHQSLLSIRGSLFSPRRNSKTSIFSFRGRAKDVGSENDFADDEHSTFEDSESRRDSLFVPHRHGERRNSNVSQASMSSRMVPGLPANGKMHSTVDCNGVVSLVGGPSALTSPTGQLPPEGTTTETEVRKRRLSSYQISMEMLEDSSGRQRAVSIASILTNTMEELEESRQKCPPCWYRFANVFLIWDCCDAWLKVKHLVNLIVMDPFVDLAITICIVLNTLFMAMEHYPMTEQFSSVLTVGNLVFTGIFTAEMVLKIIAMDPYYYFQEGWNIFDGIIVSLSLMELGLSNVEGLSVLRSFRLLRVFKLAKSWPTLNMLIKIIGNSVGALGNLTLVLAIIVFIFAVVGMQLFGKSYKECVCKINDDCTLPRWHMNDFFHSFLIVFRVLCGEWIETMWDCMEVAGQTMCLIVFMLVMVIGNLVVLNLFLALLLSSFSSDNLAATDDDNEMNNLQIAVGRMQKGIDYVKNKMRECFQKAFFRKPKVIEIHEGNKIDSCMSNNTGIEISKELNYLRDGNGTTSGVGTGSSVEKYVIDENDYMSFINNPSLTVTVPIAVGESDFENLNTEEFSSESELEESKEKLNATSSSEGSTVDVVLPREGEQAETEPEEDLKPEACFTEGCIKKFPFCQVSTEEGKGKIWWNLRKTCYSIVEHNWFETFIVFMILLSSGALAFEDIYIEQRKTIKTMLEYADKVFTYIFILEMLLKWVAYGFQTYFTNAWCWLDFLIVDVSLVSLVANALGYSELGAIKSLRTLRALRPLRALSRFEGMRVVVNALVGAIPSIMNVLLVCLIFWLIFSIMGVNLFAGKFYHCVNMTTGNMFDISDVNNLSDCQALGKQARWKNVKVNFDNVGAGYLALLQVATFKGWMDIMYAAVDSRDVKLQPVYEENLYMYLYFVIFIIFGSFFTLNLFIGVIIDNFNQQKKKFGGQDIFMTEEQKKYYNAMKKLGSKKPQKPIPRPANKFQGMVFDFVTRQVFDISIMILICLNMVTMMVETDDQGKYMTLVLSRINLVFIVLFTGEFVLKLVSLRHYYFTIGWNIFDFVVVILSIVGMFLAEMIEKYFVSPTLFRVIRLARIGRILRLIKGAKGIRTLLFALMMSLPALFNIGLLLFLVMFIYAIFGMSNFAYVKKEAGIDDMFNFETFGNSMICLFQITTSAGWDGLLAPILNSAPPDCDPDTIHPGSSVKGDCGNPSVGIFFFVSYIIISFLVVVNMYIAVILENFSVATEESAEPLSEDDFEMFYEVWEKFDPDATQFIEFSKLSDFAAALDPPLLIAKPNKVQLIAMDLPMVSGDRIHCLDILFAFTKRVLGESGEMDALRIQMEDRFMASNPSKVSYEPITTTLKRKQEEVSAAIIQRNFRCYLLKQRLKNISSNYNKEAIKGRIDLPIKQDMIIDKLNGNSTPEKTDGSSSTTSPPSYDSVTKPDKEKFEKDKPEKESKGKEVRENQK
Sequence of NaV1.8 (Q9Y5Y9 whole entry): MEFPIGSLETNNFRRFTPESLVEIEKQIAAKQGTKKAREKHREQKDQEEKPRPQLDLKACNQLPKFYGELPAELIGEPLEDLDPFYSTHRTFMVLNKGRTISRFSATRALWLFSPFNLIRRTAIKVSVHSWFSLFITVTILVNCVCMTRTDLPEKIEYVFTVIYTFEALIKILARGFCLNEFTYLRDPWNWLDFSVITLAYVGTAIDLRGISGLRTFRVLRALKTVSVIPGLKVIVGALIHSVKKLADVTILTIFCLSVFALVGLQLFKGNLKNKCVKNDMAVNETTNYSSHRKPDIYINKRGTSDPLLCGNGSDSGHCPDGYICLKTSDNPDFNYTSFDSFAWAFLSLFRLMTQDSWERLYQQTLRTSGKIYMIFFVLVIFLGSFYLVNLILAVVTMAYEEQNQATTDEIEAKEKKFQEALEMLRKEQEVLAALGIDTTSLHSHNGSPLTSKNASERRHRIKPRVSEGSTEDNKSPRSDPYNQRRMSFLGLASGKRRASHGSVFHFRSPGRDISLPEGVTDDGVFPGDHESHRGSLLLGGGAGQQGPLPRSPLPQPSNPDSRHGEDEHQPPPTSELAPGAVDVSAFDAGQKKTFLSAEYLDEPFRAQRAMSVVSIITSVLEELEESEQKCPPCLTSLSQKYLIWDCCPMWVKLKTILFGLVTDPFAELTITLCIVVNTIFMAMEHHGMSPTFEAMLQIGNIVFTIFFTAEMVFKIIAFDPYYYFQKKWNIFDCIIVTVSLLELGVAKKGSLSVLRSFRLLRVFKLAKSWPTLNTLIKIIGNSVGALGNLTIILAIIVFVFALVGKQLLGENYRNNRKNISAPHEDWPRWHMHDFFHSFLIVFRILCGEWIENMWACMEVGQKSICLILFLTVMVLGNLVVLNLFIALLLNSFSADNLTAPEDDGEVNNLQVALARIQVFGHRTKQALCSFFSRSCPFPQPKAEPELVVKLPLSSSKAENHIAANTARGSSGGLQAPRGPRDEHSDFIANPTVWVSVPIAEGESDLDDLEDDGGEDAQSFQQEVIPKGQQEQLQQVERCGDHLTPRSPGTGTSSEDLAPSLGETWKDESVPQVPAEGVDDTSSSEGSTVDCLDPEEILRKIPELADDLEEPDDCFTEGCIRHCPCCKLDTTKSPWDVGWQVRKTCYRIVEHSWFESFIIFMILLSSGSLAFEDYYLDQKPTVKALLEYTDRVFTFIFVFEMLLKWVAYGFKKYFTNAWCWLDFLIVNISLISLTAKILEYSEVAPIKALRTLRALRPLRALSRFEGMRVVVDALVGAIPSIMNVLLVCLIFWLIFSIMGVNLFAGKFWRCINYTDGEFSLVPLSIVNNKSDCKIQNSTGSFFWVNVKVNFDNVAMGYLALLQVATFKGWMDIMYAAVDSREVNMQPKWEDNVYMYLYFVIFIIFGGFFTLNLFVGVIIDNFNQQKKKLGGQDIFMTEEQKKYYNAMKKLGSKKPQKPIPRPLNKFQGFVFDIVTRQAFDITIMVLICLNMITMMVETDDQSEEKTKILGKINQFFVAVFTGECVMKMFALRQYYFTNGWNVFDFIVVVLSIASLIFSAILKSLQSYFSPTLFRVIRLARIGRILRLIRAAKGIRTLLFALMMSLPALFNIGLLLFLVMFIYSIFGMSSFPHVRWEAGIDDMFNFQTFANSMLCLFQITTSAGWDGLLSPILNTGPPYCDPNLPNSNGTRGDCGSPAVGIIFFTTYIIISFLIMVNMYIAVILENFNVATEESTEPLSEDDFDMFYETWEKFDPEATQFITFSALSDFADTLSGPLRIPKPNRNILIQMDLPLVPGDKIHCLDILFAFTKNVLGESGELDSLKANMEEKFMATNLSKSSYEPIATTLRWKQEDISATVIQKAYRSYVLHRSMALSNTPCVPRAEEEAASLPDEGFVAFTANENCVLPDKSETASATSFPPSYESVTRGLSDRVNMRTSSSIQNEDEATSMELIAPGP

Row | SMILES | IC50 (NaV1.8) | IC50 (CaV2.2) | IC50 (NaV1.3)
1 | O=C(c1cnc(N2CCCCC2)nc1-c1ccccc1Cl)N(Cc1ccc2c(c1)CCO2)C1CC1 [compound 7] | > 10 µM | 2 to 10 µM | 2 to 10 µM
2 | CC(C)N(Cc1ccccc1)C(=O)c1cnc(N2CCOCC2)nc1-c1cccc(/C=C/C(=O)O)c1 [compound 17] | > 10 µM | > 10 µM | > 10 µM
3 | Cc1nc(N2CCOCC2)nc(-c2ccccc2F)c1C(=O)N(Cc1ccc(C(C)(C)C)cc1)C(C)C [compound 31] | > 10 µM | 2 to 10 µM | 2 to 10 µM
4 | CC(C)N(C(=O)c1cnc(N2CCCCC2)nc1-c1ccccc1Cl)c1ccccc1 [compound 82] | > 10 µM | 2 to 10 µM | > 10 µM
5 | COc1cccc(N(C(=O)c2cnc(N3CCSCC3)nc2-c2ccccc2F)C(C)C)c1 [compound 62] | > 10 µM | 2 to 10 µM | 2 to 10 µM
6 | O=C(c1cnc(N2CCOCC2)nc1-c1ccccc1F)N1CCCC(c2ccc(F)cc2)C1 (stereo not drawn) [compound 191] | > 10 µM | > 10 µM | > 10 µM
7 | Cc1nc(N2CCOCC2)nc(-c2ccccc2F)c1C(=O)N(Cc1ccccc1)C1CCCC1 [compound 143] | 2 to 10 µM | 2 to 10 µM | 2 to 10 µM
8 | CC(C)N(Cc1ccccc1)C(=O)c1cnc(Nc2cccc(C(N)=O)c2)nc1-c1ccccc1F [compound 73] | > 10 µM | > 10 µM | > 10 µM
9 | N#CCCN(Cc1ccccc1)C(=O)c1cnc(N2CCOCC2)nc1-c1ccccc1F [compound 75] | > 10 µM | > 10 µM | > 10 µM
10 | CC(C)(C)c1ccc(CN(C(=O)c2cnc(N3CCOCC3)nc2-c2ccccc2F)C2CC2)cc1 [compound 161] | 2 to 10 µM | 2 to 10 µM | 2 to 10 µM
11 | COc1cccc(OC)c1-c1nc(N2CCOCC2)ncc1C(=O)N(Cc1ccccc1)C(C)C [compound 89] | > 10 µM | > 10 µM | > 10 µM
12 | CC(C)N(Cc1ccccc1)C(=O)c1cnc(N2CCSCC2)nc1-c1ccccc1F [compound 98] | 2 to 10 µM | < 2 µM | 2 to 10 µM
13 | COc1cccc(CN(C(=O)c2cnc(N3CCCCC3)nc2-c2ccccc2F)C(C)C)c1 [compound 20, 4-(2-fluorophenyl)-N-isopropyl-N-(3-methoxybenzyl)-2-(piperidin-1-yl)pyrimidine-5-carboxamide] | 2 to 10 µM | < 2 µM | 2 to 10 µM
14 | O=C(NC1Cc2ccccc2C1)c1cnc(N2CCOCC2)nc1-c1ccccc1F [compound 33] | > 10 µM | > 10 µM | > 10 µM
15 | CC(C)N(Cc1ccc(C(C)(C)C)cc1)C(=O)c1cnc(N2CCCCC2)nc1-c1ccccc1Cl [compound 119] | > 10 µM | 2 to 10 µM | > 10 µM
16 | COc1cccc(N(C(=O)c2cnc(N3CCC4CCCCC4C3)nc2-c2ccccc2F)C2CCOCC2)c1 (stereo not drawn) [compound 68] | > 10 µM | 2 to 10 µM | > 10 µM
17 | COc1cccc(N(C(=O)c2cnc(N3CCC4CCCCC4C3)nc2-c2ccccc2F)C2CCC2)c1 (stereo not drawn) [compound 65] | > 10 µM | 2 to 10 µM | > 10 µM
18 | O=C(NC1CC1)c1cnc(N2CCOCC2)nc1-c1ccccc1F [compound 79] | > 10 µM | > 10 µM | > 10 µM
19 | CC(C)N(C(=O)c1cnc(N2CCCCC2)nc1-c1ccccc1F)c1ccccc1 [compound 93] | > 10 µM | 2 to 10 µM | 2 to 10 µM
20 | O=C(c1cnc(N2CCOCC2)nc1-c1ccccc1F)N(Cc1ccccc1)C1CCCCC1 [compound 64] | > 10 µM | 2 to 10 µM | 2 to 10 µM

Row | SMILES | IC50 (NaV1.8) | IC50 (CaV2.2) | IC50 (NaV1.3)
21 | O=C(c1cnc(N2CCOCC2)nc1-c1ccccc1F)N(Cc1ccccc1)C1CCCC1 [compound 159] | 2 to 10 µM | 2 to 10 µM | 2 to 10 µM
22 | COc1cccc(N(C(=O)c2cnc(N3CCCCC3)nc2-c2ccccc2Cl)C2CCOCC2)c1 [compound 203] | > 10 µM | > 10 µM | > 10 µM
23 | Cc1cccc(CN(C(=O)c2c(C)nc(N3CCOCC3)nc2-c2ccccc2F)C2CC2)c1 [compound 10] | > 10 µM | 2 to 10 µM | 2 to 10 µM
24 | CC(C)N(Cc1ccccc1)C(=O)c1cnc(Nc2ccc(Cl)cc2)nc1-c1ccccc1F [compound 207] | > 10 µM | > 10 µM | > 10 µM
25 | CC(C)N(C(=O)c1cnc(N2CCCCC2)nc1-c1ccccc1F)c1ccc2c(c1)OCCO2 [compound 171] | > 10 µM | 2 to 10 µM | 2 to 10 µM
26 | CC(C)N(C(=O)c1cnc(N2CCOCC2)nc1-c1ccccc1F)c1cccc2ccccc12 [compound 76] | > 10 µM | > 10 µM | > 10 µM
27 | CN1CCN(c2ncc(C(=O)N(Cc3ccncc3)C3CC3)c(-c3ccccc3F)n2)CC1 [compound 18] | > 10 µM | > 10 µM | > 10 µM
28 | COc1ccc(N(C(=O)c2cnc(N3CCOCC3)nc2-c2ccccc2F)C(C)C)cc1 [compound 185] | > 10 µM | 2 to 10 µM | > 10 µM
29 | Cc1nc(N2CCOCC2)nc(-c2ccccc2F)c1C(=O)N(c1ccccc1)C(C)C [compound 25] | > 10 µM | > 10 µM | > 10 µM
30 | CC(C)N(Cc1ccccc1)C(=O)c1cnc(Nc2ccc(F)cc2)nc1-c1ccccc1F [compound 181] | > 10 µM | > 10 µM | > 10 µM
31 | O=C(c1cnc(N2CCOCC2)nc1-c1ccccc1F)N(Cc1ccc(C(F)(F)F)cc1)C1CC1 [compound 124] | > 10 µM | 2 to 10 µM | 2 to 10 µM
32 | O=C(c1cnc(N2CCOCC2)nc1-c1ccccc1F)N1CC=C(c2ccc(F)cc2)CC1 [compound 71] | > 10 µM | > 10 µM | > 10 µM
33 | COc1cccc(N(C(=O)c2c(C)nc(N3CCOCC3)nc2-c2ccccc2F)C(C)C)c1 [compound 21] | > 10 µM | > 10 µM | > 10 µM
34 | CC(C)N(C(=O)c1cnc(N2CCOCC2)nc1-c1ccccc1F)c1cccc(C(C)(C)C)c1 [compound 165] | > 10 µM | > 10 µM | 2 to 10 µM
35 | COc1cccc(CN(C(=O)c2cnc(N3CCOCC3)nc2-c2ccccc2F)C(C)C)c1 [compound 74] | > 10 µM | 2 to 10 µM | 2 to 10 µM
36 | CC(C)N(C(=O)c1cnc(N2CCCCC2)nc1-c1ccccc1F)C1CCSC1 (stereo not drawn) [compound 149] | > 10 µM | > 10 µM | > 10 µM
37 | O=C(c1cnc(N2CCSCC2)nc1-c1ccccc1F)N(Cc1ccc(C(F)(F)F)cc1)C1CC1 [compound 85] | 2 to 10 µM | > 10 µM | 2 to 10 µM
38 | CC(C)N(C(=O)c1cnc(N2CCSCC2)nc1-c1ccccc1F)c1ccccc1 [compound 201] | > 10 µM | 2 to 10 µM | 2 to 10 µM
39 | COc1cccc(N(C(=O)c2cnc(N3CCCCC3)nc2-c2ccccc2F)C2CCC2)c1 [compound 116] | > 10 µM | 2 to 10 µM | 2 to 10 µM
40 | O=C(c1cnc(N2CCSCC2)nc1-c1ccccc1F)N(Cc1cccc(-c2ccncc2)c1)C1CC1 [compound 204] | > 10 µM | 2 to 10 µM | 2 to 10 µM

— patent US8546414B2, “Ion channel modulators and methods of use” (Vertex Pharmaceuticals Incorporated, priority 2004, dated 2013)
